# In US20250223281A1, “ANTIDIABETIC COMPOUNDS AND COMPOSITIONS” (REZUBIO PHARMACEUTICALS CO., LTD, priority 2022, published 2025):
# Target: T1, GPR40 (Homo sapiens, UniProt O14842)
# T1 construct: expressed in transfected cells; host or cells: HEK293 cells stably expressing GPR40 (Hygromycin selection)
# Experiment: IP1 accumulation assay in HEK293 cells stably expressing GPR40
# Assay type: cell-based
# Outline: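 HEK293 cells stably expressing human GPR40 were incubated with compounds (10-point, 3-fold dilution series) for 2 h at 37 °C, then IP1 was detected by HTRF (665/615 nm ratio). Effect was normalised to DMSO blank and AMG-1638 as 100%, and EC50 was derived from dose curves.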
# [1] = IP1 accumulation, HEK293 cells stably expressing GPR40, 2 hours at 37° C., % effect relative to AMG-1638, table of Biological Example 1
# [2] = Table A-8 (additional examples), obtained by methods of Biological Example 1
# T1 sequence (O14842 whole entry): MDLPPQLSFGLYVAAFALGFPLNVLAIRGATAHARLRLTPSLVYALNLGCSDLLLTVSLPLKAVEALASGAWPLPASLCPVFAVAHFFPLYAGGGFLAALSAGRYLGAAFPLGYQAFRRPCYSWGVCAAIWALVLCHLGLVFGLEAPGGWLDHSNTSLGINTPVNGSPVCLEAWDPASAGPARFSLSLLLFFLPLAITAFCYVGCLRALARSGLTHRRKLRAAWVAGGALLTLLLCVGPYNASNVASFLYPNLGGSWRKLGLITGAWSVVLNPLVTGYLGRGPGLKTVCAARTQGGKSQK
SMILES,EC50 [1] [nM],"EC50 (Tables A-1a to A-7b (structure-property relationship), obtained by methods of Biological Example 1) [nM]",EC50 [2] [nM]
COc1ccc(F)c(-c2ccc(COc3cccc([C@@H](CC(=O)O)C4CC4)c3)cc2OC(C)(C)Cn2cc(CCCCCCCCCCC(=O)NCCN(CCC(=O)NCCN)CCC(=O)NCCN)nn2)c1 [Example 137],2600,–,–
COc1ccc(F)c(-c2ccc(COc3cccc([C@@H](CC(=O)O)C4CC4)c3)cc2OC(C)(C)Cn2cc(CCCCCCCCCCCCCCC(=O)NCC[N+](C)(CCC(=O)NCCN)CCC(=O)NCCN)nn2)c1 [Example 139],8.54,–,–
COc1ccc(F)c(-c2ccc(COc3cccc([C@@H](CC(=O)O)C4CC4)c3)cc2OC(C)(C)Cn2cc(CCCCCCCCC(=O)NCC[N+](C)(CCC(=O)NCCN)CCC(=O)NCCN)nn2)c1 [Example 140],> 10000,–,–
COc1ccc(F)c(-c2ccc(COc3cccc([C@@H](CC(=O)O)C4CC4)c3)cc2OC(C)(C)Cn2cc(CCCCCCCCCCC(=O)NCC[N+](C)(CCC(=O)NCCN)CCC(=O)NCCN)nn2)c1 [Example 141],1650,–,–
COc1ccc(F)c(-c2ccc(COc3cccc([C@@H](CC(=O)O)C4CC4)c3)cc2OC(C)(C)Cn2cc(CCCCCCCCCCCCCC(=O)NCC[N+](C)(CCC(=O)NCCN)CCC(=O)NCCN)nn2)c1 [Example 142],30.7,–,–
COc1ccc(F)c(-c2ccc(COc3cccc([C@@H](CC(=O)O)C4CC4)c3)cc2C(C)(C)c2cn(CCCCCCCCCC(=O)NCC[N+](C)(CCC(=O)NCCN)CCC(=O)NCCN)nn2)c1 [Example 143],> 10000,–,–
COc1ccc(F)c(-c2ccc(COc3cccc([C@@H](CC(=O)O)C4CC4)c3)cc2CC(C)(C)Cn2cc(CCCCCCCCC(=O)NCC[N+](C)(CCC(=O)NCCN)CCC(=O)NCCN)nn2)c1 [Example 144],5170,5170,–
COc1ccc(F)c(-c2ccc(COc3cccc([C@@H](CC(=O)O)C4CC4)c3)cc2CC(C)(C)Cn2cc(CCCCCCCCCCCCCC(=O)NCCCN(CC(=O)NCCN)CC(=O)NCCN)nn2)c1 [Example 152],34.4,–,–
COc1ccc(F)c(-c2ccc(COc3cccc([C@@H](CC(=O)O)C4CC4)c3)cc2CC(C)(C)Cn2cc(CCCCCCCCCCCCCC(=O)NCCC[N+](C)(CC(=O)NCCN)CC(=O)NCCN)nn2)c1 [Example 155],18.8,–,–
COc1ccc(F)c(-c2ccc(COc3cccc([C@@H](CC(=O)O)C4CC4)c3)cc2C(C)(C)Cn2cc(CCCCCCCCCCCCCCCCCC(=O)NCC[N+](C)(CCC(=O)NCCN)CCC(=O)NCCN)nn2)c1 [Example 158],8.97,–,–
COc1ccc(C(=O)N(CC(C)(C)CCn2cc(COCCOCCOCC(=O)NCCN(CCC(=O)NCCN)CCC(=O)NCCN)nn2)c2cccc(C)n2)c(N2CCC(COc3cc([C@@H](CC(=O)O)C4CC4)ccn3)CC2)c1 [Example 159],> 6000,–,> 6000
COc1ccc(C(=O)N(CC(C)(C)CCn2cc(COCCOCCOCCOCCOCC(=O)NCCN(CCC(=O)NCCN)CCC(=O)NCCN)nn2)c2cccc(C)n2)c(N2CCC(COc3cc([C@@H](CC(=O)O)C4CC4)ccn3)CC2)c1 [Example 161],2200,–,2200
COc1ccc(C(=O)N(CC(C)(C)CCn2cc(COCCOCCOCC(=O)NCC[N+](C)(CCC(=O)NCCN)CCC(=O)NCCN)nn2)c2cccc(C)n2)c(N2CCC(COc3cc([C@@H](CC(=O)O)C4CC4)ccn3)CC2)c1 [Example 162],1250,–,1250
COc1ccc(C(=O)N(CC(C)(C)CCn2cc(COCCOCCOCCOCC(=O)NCC[N+](C)(CCC(=O)NCCN)CCC(=O)NCCN)nn2)c2cccc(C)n2)c(N2CCC(COc3cc(C(CC(=O)O)C4CC4)ccn3)CC2)c1 (stereo not shown) [Example 163],> 5000,–,> 5000
COc1ccc(C(=O)N(CC(C)(C)CCn2cc(COCCOCCOCCOCCOCC(=O)NCC[N+](C)(CCC(=O)NCCN)CCC(=O)NCCN)nn2)c2cccc(C)n2)c(N2CCC(COc3cc([C@@H](CC(=O)O)C4CC4)ccn3)CC2)c1 [Example 164],1330,–,1330
COc1ccc(F)c(-c2ccc(COc3cccc([C@@H](CC(=O)O)C4CC4)c3)cc2CC(C)(C)Cn2cc(COCCOCCOCC(=O)NCCN(CCC(=O)NCCN)CCC(=O)NCCN)nn2)c1 [Example 165],> 10000,–,> 10000
COc1ccc(F)c(-c2ccc(COc3cccc([C@@H](CC(=O)O)C4CC4)c3)cc2CC(C)(C)Cn2cc(COCCOCCOCCOCC(=O)NCCN(CCC(=O)NCCN)CCC(=O)NCCN)nn2)c1 [Example 166],> 10000,–,> 10000
COc1ccc(F)c(-c2ccc(COc3cccc([C@@H](CC(=O)O)C4CC4)c3)cc2CC(C)(C)Cn2cc(COCCOCCOCCOCCOCC(=O)NCCN(CCC(=O)NCCN)CCC(=O)NCCN)nn2)c1 [Example 167],> 10000,–,> 10000
COc1ccc(F)c(-c2ccc(COc3cccc([C@@H](CC(=O)O)C4CC4)c3)cc2CC(C)(C)Cn2cc(COCCOCCOCC(=O)NCC[N+](C)(CCC(=O)NCCN)CCC(=O)NCCN)nn2)c1 [Example 168],> 10000,–,> 10000
COc1ccc(F)c(-c2ccc(COc3cccc([C@@H](CC(=O)O)C4CC4)c3)cc2CC(C)(C)Cn2cc(COCCOCCOCCOCC(=O)NCC[N+](C)(CCC(=O)NCCN)CCC(=O)NCCN)nn2)c1 [Example 169],> 10000,–,> 10000
COc1ccc(F)c(-c2ccc(COc3cccc([C@@H](CC(=O)O)C4CC4)c3)cc2CC(C)(C)Cn2cc(COCCOCCOCCOCCOCC(=O)NCC[N+](C)(CCC(=O)NCCN)CCC(=O)NCCN)nn2)c1 [Example 170],200,–,> 200
C[C@H](C(=O)O)[C@H](c1ccc2c(c1)O[C@@H](C1CCN(Cc3cc(-n4cc(COCCOCCOCC(=O)NCCN(CCC(=O)NCCN)CCC(=O)NCCN)nn4)ccc3OC(F)(F)F)CC1)CC2)C1CC1 [Example 171],> 10000,–,> 10000
C[C@H](C(=O)O)[C@H](c1ccc2c(c1)O[C@@H](C1CCN(Cc3cc(-n4cc(COCCOCCOCCOCC(=O)NCCN(CCC(=O)NCCN)CCC(=O)NCCN)nn4)ccc3OC(F)(F)F)CC1)CC2)C1CC1 [Example 172],5240,–,5240
C[C@H](C(=O)O)[C@H](c1ccc2c(c1)O[C@@H](C1CCN(Cc3cc(-n4cc(COCCOCCOCCOCCOCC(=O)NCCN(CCC(=O)NCCN)CCC(=O)NCCN)nn4)ccc3OC(F)(F)F)CC1)CC2)C1CC1 [Example 173],> 10000,–,> 10000
C[C@H](C(=O)O)[C@H](c1ccc2c(c1)O[C@@H](C1CCN(Cc3cc(-n4cc(COCCOCCOCC(=O)NCC[N+](C)(CCC(=O)NCCN)CCC(=O)NCCN)nn4)ccc3OC(F)(F)F)CC1)CC2)C1CC1 [Example 174],> 10000,–,> 10000
C[C@H](C(=O)O)[C@H](c1ccc2c(c1)O[C@@H](C1CCN(Cc3cc(-n4cc(COCCOCCOCCOCC(=O)NCC[N+](C)(CCC(=O)NCCN)CCC(=O)NCCN)nn4)ccc3OC(F)(F)F)CC1)CC2)C1CC1 [Example 175],> 10000,–,> 10000

# The next molecules have a lower EC50 [1] than those just listed; values first:
EC50 [1] [nM],"EC50 (Tables A-1a to A-7b (structure-property relationship), obtained by methods of Biological Example 1) [nM]",EC50 [2] [nM],SMILES
6.87,–,–,COc1ccc(F)c(-c2ccc(COc3cccc([C@@H](CC(=O)O)C4CC4)c3)cc2OC(C)(C)Cn2cc(CCCCCCCCCCCCCCC(=O)NCCN(CCC(=O)NCCN)CCC(=O)NCCN)nn2)c1 [Example 138]
0.19,–,–,C[C@H](C(=O)O)[C@H](c1ccc2c(c1)O[C@@H](C1CCN(Cc3cc(-n4cc(CCCCCCCCCCCCCCCCCC(=O)NCCCN(C)CC(=O)NCCN)nn4)ccc3OC(F)(F)F)CC1)CC2)C1CC1 [Example 145]
0.12,–,–,C[C@H](C(=O)O)[C@H](c1ccc2c(c1)O[C@@H](C1CCN(Cc3cc(-n4cc(CCCCCCCCCCCCCCCCCC(=O)NCCC[N+](C)(C)CC(=O)NCCN)nn4)ccc3OC(F)(F)F)CC1)CC2)C1CC1 [Example 146]
0.62,–,–,COc1ccc(F)c(-c2ccc(COc3cccc([C@@H](CC(=O)O)C4CC4)c3)cc2CC(C)(C)Cn2cc(CCCCCCCCCCCCCCCCCC(=O)NCCCN(C)CC(=O)NCCN)nn2)c1 [Example 147]
0.43,–,–,COc1ccc(F)c(-c2ccc(COc3cccc([C@@H](CC(=O)O)C4CC4)c3)cc2CC(C)(C)Cn2cc(CCCCCCCCCCCCCCCCCC(=O)NCCC[N+](C)(C)CC(=O)NCCN)nn2)c1 [Example 148]
0.09,–,–,COc1ccc(C(=O)N(CC(C)(C)CCCCCCn2cc(CCCCCCCCCCCCCCCCCC(=O)NCCCN(C)CC(=O)NCCN)nn2)c2cccc(C)n2)c(N2CCC(COc3cc([C@@H](CC(=O)O)C4CC4)ccn3)CC2)c1 [Example 149]
0.07,–,–,COc1ccc(C(=O)N(CC(C)(C)CCn2cc(CCCCCCCCCCCCCCCCCC(=O)NCCCN(C)CC(=O)NCCN)nn2)c2cccc(C)n2)c(N2CCC(COc3cc([C@@H](CC(=O)O)C4CC4)ccn3)CC2)c1 [Example 150]
0.05,–,–,COc1ccc(C(=O)N(CC(C)(C)CCn2cc(CCCCCCCCCCCCCCCCCC(=O)NCCC[N+](C)(C)CC(=O)NCCN)nn2)c2cccc(C)n2)c(N2CCC(COc3cc([C@@H](CC(=O)O)C4CC4)ccn3)CC2)c1 [Example 151]
6.64,–,–,COc1ccc(F)c(-c2ccc(COc3cccc([C@@H](CC(=O)O)C4CC4)c3)cc2CC(C)(C)Cn2cc(CCCCCCCCCCCCCCCC(=O)NCCCN(CC(=O)NCCN)CC(=O)NCCN)nn2)c1 [Example 153]
1.04,–,–,COc1ccc(F)c(-c2ccc(COc3cccc([C@@H](CC(=O)O)C4CC4)c3)cc2CC(C)(C)Cn2cc(CCCCCCCCCCCCCCCCCC(=O)NCCCN(CC(=O)NCCN)CC(=O)NCCN)nn2)c1 [Example 154]
2.53,–,–,COc1ccc(F)c(-c2ccc(COc3cccc([C@@H](CC(=O)O)C4CC4)c3)cc2CC(C)(C)Cn2cc(CCCCCCCCCCCCCCCC(=O)NCCC[N+](C)(CC(=O)NCCN)CC(=O)NCCN)nn2)c1 [Example 156]
0.54,–,–,COc1ccc(F)c(-c2ccc(COc3cccc([C@@H](CC(=O)O)C4CC4)c3)cc2CC(C)(C)Cn2cc(CCCCCCCCCCCCCCCCCC(=O)NCCC[N+](C)(CC(=O)NCCN)CC(=O)NCCN)nn2)c1 [Example 157]
